The record followed here is patent publication US10550112B2, “Pyrimidines as EGFR inhibitors and methods of treating disorders” (Dana-Farber Cancer Institute, Inc., priority 2015, dated 2020).

What all share (type): cell-based, Murine
For assay [1], the target named is EGFR wild type Ba/F3 cell line (Homo sapiens, UniProt P00533, cells depend on it, form not given). As to the kind of experiment: Ba/F3 cell proliferation MTS assay, EGFR wild type. The note with it: 72 hours. For orientation: Tetrazolium dyes change colour on reduction, which living cells bring about.
Sequence of EGFR wild type Ba/F3 cell line (P00533 whole entry, stated change not applied): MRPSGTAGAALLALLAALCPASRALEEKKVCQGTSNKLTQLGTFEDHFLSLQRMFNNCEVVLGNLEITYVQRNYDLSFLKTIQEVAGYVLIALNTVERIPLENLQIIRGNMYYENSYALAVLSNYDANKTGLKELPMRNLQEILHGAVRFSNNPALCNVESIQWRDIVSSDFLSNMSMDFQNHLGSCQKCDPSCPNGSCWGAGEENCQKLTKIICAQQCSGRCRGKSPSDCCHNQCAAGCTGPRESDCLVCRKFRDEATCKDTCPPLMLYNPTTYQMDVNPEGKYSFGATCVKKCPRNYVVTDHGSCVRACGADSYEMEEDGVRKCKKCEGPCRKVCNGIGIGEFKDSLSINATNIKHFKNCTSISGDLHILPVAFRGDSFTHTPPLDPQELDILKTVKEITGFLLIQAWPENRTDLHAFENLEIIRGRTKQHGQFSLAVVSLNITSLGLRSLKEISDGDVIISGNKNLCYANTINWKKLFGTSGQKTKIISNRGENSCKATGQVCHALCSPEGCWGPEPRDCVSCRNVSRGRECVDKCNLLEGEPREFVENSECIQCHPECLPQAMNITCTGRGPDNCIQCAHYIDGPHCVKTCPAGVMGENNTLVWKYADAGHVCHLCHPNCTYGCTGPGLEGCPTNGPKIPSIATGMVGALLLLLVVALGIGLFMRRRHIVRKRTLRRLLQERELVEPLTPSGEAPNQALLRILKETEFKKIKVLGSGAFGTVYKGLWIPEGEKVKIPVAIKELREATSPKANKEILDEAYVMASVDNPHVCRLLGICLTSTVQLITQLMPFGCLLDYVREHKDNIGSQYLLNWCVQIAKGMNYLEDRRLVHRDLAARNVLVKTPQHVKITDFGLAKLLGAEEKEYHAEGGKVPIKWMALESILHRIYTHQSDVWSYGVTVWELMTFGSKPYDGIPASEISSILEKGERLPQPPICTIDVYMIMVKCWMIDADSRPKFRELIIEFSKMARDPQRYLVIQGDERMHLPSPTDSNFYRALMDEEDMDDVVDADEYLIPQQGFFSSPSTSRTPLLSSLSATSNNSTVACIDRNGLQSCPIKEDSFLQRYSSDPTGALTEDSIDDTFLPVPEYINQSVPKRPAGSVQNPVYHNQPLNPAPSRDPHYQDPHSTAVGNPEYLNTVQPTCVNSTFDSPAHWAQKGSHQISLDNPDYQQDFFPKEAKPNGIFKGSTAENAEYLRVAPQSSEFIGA
Assay [2] concerns the target EGFR InsSVD Ba/F3 cell line (Homo sapiens, UniProt P00533, DUP768-770, cells depend on it). As to the kind of experiment: Ba/F3 cell proliferation MTS assay, EGFR InsSVD. The note with it: EGFR InsSVD (D770_N771insSVD) Ba/F3 cells, 72 hours.
Method: (§1) Different EGFR exon 20 insertion mutations were introduced via site directed mutagenesis into full length EGFR using the Quick Change Site-Directed Mutagenesis kit (Stratagene; La Jolla, Calif.) according to the manufacturer's instructions. All constructs were confirmed by DNA sequencing. The constructs were shuttled into the retroviral vector JP1540 using the BD Creator™ System (BD Biosciences). […] Stable clones were obtained by selection in puromycin (2 μg/ml) and growth in IL-3 free media.
(§2) Murine Ba/F3 cells engineered to express mutant and wild type EGFR or HER2 protein were used to perform single drug screens. Cell viability was assessed after 72 hours of compound exposure using the colorimetric cell proliferation MTS assay kit (Promega).
(§3) The curves were fitted using a non-linear regression model with a sigmoidal dose response.
Assay [3] deals with EGFR InsASV Ba/F3 cell line (Homo sapiens, UniProt P00533, DUP767-769, cells depend on it). As to the kind of experiment: Ba/F3 cell proliferation MTS assay, EGFR InsASV. As to conditions: EGFR InsASV (V769_D770insASV) Ba/F3 cells, 72 hours.
Sequence of EGFR InsASV Ba/F3 cell line (P00533 with tags, fused parts or gaps DUP767-769): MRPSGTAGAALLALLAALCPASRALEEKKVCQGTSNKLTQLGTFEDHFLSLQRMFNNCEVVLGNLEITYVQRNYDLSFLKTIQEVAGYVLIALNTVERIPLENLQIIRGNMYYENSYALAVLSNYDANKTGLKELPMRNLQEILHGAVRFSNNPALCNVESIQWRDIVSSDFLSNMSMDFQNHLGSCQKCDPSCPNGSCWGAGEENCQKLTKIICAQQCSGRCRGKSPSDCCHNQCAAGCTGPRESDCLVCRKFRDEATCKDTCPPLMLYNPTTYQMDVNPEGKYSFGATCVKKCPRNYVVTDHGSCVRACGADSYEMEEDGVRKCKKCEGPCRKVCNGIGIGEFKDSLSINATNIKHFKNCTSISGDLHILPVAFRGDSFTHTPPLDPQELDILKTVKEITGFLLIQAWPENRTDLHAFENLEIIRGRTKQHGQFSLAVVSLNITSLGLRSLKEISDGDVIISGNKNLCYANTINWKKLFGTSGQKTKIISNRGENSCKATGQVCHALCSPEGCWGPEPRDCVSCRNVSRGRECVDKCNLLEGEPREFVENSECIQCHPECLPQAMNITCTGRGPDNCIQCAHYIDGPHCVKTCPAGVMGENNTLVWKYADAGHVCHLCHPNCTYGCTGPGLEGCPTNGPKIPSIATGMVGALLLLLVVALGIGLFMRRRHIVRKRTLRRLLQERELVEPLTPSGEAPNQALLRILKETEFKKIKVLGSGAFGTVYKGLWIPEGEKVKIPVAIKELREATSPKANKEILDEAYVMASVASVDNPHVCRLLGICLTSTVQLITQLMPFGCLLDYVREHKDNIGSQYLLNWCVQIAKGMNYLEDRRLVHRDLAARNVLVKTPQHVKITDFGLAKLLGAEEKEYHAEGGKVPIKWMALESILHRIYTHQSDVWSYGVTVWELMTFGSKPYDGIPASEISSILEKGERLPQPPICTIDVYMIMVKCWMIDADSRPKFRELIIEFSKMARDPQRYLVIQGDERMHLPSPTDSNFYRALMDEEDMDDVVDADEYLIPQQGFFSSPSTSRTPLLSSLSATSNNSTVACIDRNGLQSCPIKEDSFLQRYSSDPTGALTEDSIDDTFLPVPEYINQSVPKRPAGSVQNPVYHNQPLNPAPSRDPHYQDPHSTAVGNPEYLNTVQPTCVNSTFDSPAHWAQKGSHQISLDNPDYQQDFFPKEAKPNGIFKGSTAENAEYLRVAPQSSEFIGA
Method: as §1, §2, §3
Assay [4] deals with HER2 wild type Ba/F3 cell line (Homo sapiens, UniProt P04626). Briefly: Ba/F3 cell proliferation MTS assay, HER2 wild type. The note with it: HER2 wild type Ba/F3 cells, 72 hours.
Method: as §2, §3
Assay [5] has as its target HER2 InsYVMA Ba/F3 cell line (Homo sapiens, UniProt P04626, DUP772-775, cells depend on it). Briefly: Ba/F3 cell proliferation MTS assay, HER2 InsYVMA.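 Further: murine Ba/F3 cells engineered to carry mutant HER2, viability read colorimetrically by MTS after 72 h of exposure, EC50 from sigmoidal non-linear regression of dose response.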 As to conditions: 72 hours.
Method: as §2, §3
For assay [6], the target named is EGFR InsGY Ba/F3 cell line (Homo sapiens, UniProt P00533, DELINS770-770GY, cells depend on it). Briefly: Ba/F3 cell proliferation MTS assay, EGFR InsGY. As to conditions: EGFR InsGY (D770delinsGY) Ba/F3 cells, 72 hours.
Method: as §1, §2, §3

Sequence of HER2 InsYVMA Ba/F3 cell line (P04626 with tags, fused parts or gaps DUP772-775): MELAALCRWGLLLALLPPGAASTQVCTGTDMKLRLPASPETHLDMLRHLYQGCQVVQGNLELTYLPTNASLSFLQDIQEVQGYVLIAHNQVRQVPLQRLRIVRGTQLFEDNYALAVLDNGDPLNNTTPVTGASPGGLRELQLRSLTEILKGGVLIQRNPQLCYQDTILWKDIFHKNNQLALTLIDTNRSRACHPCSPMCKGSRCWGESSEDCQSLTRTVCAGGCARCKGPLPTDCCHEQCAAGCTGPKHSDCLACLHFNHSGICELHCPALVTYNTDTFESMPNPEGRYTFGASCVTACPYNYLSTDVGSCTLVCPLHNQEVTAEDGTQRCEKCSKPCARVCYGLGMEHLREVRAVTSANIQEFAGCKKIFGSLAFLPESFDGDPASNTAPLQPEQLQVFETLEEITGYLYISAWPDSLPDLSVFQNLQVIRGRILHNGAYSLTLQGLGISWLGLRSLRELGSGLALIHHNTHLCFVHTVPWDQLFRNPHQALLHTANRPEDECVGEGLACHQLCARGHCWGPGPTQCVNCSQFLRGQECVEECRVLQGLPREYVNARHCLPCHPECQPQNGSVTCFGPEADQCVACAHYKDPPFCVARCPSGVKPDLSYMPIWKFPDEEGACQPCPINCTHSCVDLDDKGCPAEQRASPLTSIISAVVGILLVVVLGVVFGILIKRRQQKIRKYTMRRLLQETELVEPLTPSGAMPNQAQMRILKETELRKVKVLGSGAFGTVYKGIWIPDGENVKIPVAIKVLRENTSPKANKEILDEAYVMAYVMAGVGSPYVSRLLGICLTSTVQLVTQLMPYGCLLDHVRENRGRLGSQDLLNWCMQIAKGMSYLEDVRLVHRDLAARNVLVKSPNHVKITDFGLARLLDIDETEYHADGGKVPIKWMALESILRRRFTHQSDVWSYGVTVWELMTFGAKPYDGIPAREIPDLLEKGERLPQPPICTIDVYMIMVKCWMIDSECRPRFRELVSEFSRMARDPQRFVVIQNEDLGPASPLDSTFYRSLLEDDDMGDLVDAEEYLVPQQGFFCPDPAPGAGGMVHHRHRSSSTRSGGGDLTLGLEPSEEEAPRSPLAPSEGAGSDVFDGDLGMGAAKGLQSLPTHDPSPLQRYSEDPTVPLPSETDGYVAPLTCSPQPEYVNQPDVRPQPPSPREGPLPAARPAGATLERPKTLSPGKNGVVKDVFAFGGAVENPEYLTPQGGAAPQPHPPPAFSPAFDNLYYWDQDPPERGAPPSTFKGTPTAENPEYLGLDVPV
Sequence of EGFR InsSVD Ba/F3 cell line (P00533 with tags, fused parts or gaps DUP768-770): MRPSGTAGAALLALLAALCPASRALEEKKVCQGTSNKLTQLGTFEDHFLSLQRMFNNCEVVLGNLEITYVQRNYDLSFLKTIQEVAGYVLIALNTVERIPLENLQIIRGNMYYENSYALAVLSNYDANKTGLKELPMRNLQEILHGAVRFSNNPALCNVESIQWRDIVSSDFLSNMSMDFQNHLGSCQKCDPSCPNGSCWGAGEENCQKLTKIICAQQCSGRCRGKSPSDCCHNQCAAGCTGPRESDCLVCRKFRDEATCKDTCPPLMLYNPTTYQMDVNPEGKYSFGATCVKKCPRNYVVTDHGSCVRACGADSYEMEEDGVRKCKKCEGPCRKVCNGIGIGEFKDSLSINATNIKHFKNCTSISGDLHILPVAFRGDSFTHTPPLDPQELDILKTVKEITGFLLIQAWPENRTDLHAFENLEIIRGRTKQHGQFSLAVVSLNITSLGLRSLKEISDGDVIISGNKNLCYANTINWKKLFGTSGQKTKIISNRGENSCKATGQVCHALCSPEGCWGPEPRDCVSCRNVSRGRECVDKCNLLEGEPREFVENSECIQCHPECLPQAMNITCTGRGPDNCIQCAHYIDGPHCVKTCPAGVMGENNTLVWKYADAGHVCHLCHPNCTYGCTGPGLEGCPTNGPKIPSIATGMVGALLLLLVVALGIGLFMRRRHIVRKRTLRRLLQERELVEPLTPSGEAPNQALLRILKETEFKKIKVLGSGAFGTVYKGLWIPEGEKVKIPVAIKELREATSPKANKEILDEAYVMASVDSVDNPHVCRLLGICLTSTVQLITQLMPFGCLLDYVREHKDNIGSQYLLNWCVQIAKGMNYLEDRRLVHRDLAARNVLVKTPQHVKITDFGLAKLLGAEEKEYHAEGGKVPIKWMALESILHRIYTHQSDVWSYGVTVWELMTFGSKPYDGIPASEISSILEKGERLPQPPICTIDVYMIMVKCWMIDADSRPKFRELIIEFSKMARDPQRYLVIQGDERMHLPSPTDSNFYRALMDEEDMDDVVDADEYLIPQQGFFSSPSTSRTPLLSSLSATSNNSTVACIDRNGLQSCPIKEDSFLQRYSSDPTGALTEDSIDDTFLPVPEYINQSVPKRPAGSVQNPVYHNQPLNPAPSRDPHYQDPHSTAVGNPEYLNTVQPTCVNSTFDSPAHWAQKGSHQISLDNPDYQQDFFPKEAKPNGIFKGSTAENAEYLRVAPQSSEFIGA

Consider `C=CC(=O)Nc1cccc(N(C(=O)OCc2csc3ccccc23)c2ccnc(Nc3cnn(C)c3)n2)c1` [Compound I-19, benzo[b]thiophen-3-ylmethyl (3-acrylamidophenyl)(2-((1-methyl-1H-pyrazol-4-yl)amino)pyrimidin-4-yl)carbamate], for which the EC50 was 100 to 500 nM in assay [1]; above 1000 nM in assay [2]; above 1000 nM in assay [3]; 100 to 500 nM in assay [4]; above 1000 nM in assay [5]; above 1000 nM in assay [6].
`C=CC(=O)Nc1cccc(N(C(=O)OCc2ccc(F)cn2)c2ccnc(Nc3ccn(C)n3)n2)c1` [Compound I-10, (5-fluoropyridin-2-yl)methyl (3-acrylamidophenyl)(2-((1-methyl-1H-pyrazol-3-yl)amino)pyrimidin-4-yl)carbamate]: the EC50 in assay [1] was below 100 nM; in assay [2], 100 to 500 nM; in assay [3], 500 to 1000 nM; in assay [4], 100 to 500 nM; in assay [5], 500 to 1000 nM; in assay [6], 500 to 1000 nM.
As for `C=CC(=O)Nc1cccc(N(C(=O)OCc2ccc(F)cn2)c2ccnc(Nc3cnn(C)c3)n2)c1` [Compound I-11, (5-fluoropyridin-2-yl)methyl (3-acrylamidophenyl)(2-((1-methyl-1H-pyrazol-4-yl)amino)pyrimidin-4-yl)carbamate], the EC50 in assay [1] is below 100 nM; in assay [2], 500 to 1000 nM; in assay [3], above 1000 nM; in assay [4], 100 to 500 nM; in assay [5], 500 to 1000 nM; in assay [6] it was 500 to 1000 nM.
As for `C=CC(=O)Nc1cccc(N(C(=O)OCc2ccc(F)nc2)c2ccnc(Nc3ccn(C)n3)n2)c1` [Compound I-12, (6-fluoropyridin-3-yl)methyl (3-acrylamidophenyl)(2-((1-methyl-1H-pyrazol-3-yl)amino)pyrimidin-4-yl)carbamate], the EC50 in assay [1] is 100 to 500 nM; in assay [2] it was 500 to 1000 nM; in assay [3] it was above 1000 nM; in assay [4], 100 to 500 nM; in assay [5] it was above 1000 nM; in assay [6] it was 500 to 1000 nM.
`C=CC(=O)Nc1cccc(N(C(=O)O[C@H](C)c2ccc(F)cc2)c2ccnc(Nc3cnn(C)c3)n2)c1` [Compound I-15, (R)-1-(4-fluorophenyl)ethyl (3-acrylamidophenyl)(2-((1-methyl-1H-pyrazol-4-yl)amino)pyrimidin-4-yl)carbamate]: the EC50 in assay [1] is below 100 nM; in assay [2], below 100 nM; in assay [3], 100 to 500 nM; in assay [4], below 100 nM; in assay [5], 100 to 500 nM; in assay [6], below 100 nM.
As to `C=CC(=O)Nc1cccc(N(C(=O)OCc2ccc(Cl)cc2)c2ccnc(Nc3cnn(C)c3)n2)c1` [Compound I-9, 4-chlorobenzyl (3-acrylamidophenyl)(2-((1-methyl-1H-pyrazol-4-yl)amino)pyrimidin-4-yl)carbamate], the EC50 is below 100 nM in assay [1]; 100 to 500 nM in assay [2]; 500 to 1000 nM in assay [3]; below 100 nM in assay [4]; 100 to 500 nM in assay [5]; 100 to 500 nM in assay [6].
`C=CC(=O)Nc1cccc(N(C(=O)O[C@@H](C)c2ccc(F)cc2)c2ccnc(Nc3ccn(C)n3)n2)c1` [Compound I-16, (S)-1-(4-fluorophenyl)ethyl (3-acrylamidophenyl)(2-((1-methyl-1H-pyrazol-3-yl)amino)pyrimidin-4-yl)carbamate]: the EC50 was below 100 nM in assay [1]; 100 to 500 nM in assay [2]; 500 to 1000 nM in assay [3]; below 100 nM in assay [4]; 500 to 1000 nM in assay [5]; 100 to 500 nM in assay [6].
As for `C=CC(=O)Nc1cccc(N(C(=O)OCc2ccccc2)c2ccnc(Nc3ccn(C)n3)n2)c1` [Compound I-1, benzyl (3-acrylamidophenyl)(2-((1-methyl-1H-pyrazol-3-yl)amino)pyrimidin-4-yl)carbamate], the EC50 in assay [1] was below 100 nM; in assay [2], below 100 nM; in assay [3] it was 100 to 500 nM; in assay [4], below 100 nM; in assay [5] it was below 100 nM; in assay [6], below 100 nM.
For the compound `C=CC(=O)Nc1cccc(N(C(=O)OCc2ccc(Cl)cc2)c2ccnc(Nc3ccn(C)n3)n2)c1` [Compound I-8, 4-chlorobenzyl (3-acrylamidophenyl)(2-((1-methyl-1H-pyrazol-3-yl)amino)pyrimidin-4-yl)carbamate], the EC50 in assay [1] was 100 to 500 nM; in assay [2], above 1000 nM; in assay [3] it was above 1000 nM; in assay [4], 100 to 500 nM; in assay [5] it was above 1000 nM; in assay [6], 100 to 500 nM.
As to `C=CC(=O)Nc1cccc(N(C(=O)OCc2ccc(F)nc2)c2ccnc(Nc3cnn(C)c3)n2)c1` [Compound I-13, (6-fluoropyridin-3-yl)methyl (3-acrylamidophenyl)(2-((1-methyl-1H-pyrazol-4-yl)amino)pyrimidin-4-yl)carbamate], the EC50 in assay [1] is 100 to 500 nM; in assay [2], above 1000 nM; in assay [3] it was above 1000 nM; in assay [4], 100 to 500 nM; in assay [5], above 1000 nM; in assay [6], above 1000 nM.
For `C=CC(=O)Nc1cccc(N(C(=O)O[C@H](C)c2ccc(F)cc2)c2ccnc(Nc3ccn(C)n3)n2)c1` [Compound I-14, (R)-1-(4-fluorophenyl)ethyl (3-acrylamidophenyl)(2-((1-methyl-1H-pyrazol-3-yl)amino)pyrimidin-4-yl)carbamate], the EC50 in assay [1] was 100 to 500 nM; in assay [2], 500 to 1000 nM; in assay [3] it was above 1000 nM; in assay [4] it was 500 to 1000 nM; in assay [6] it was 500 to 1000 nM.
`C=CC(=O)Nc1cccc(N(C(=O)OCc2ccc(F)cc2F)c2ccnc(Nc3cnn(C)c3)n2)c1` [Compound I-29, 2,4-difluorobenzyl (3-acrylamidophenyl)(2-((1-methyl-1H-pyrazol-4-yl)amino)pyrimidin-4-yl)carbamate]: the EC50 in assay [1], in assay [2], in assay [4], in assay [5] and in assay [6] was below 100 nM in each case.
`C=CC(=O)Nc1cccc(N(C(=O)OCc2cccc(F)c2)c2ccnc(Nc3ccn(C)n3)n2)c1` [Compound I-2, 3-fluorobenzyl (3-acrylamidophenyl)(2-((1-methyl-1H-pyrazol-3-yl)amino)pyrimidin-4-yl)carbamate]: the EC50 in assay [1] is below 100 nM; in assay [2], below 100 nM; in assay [4], below 100 nM; in assay [5] it was 100 to 500 nM; in assay [6], below 100 nM.
As to `C=CC(=O)Nc1cccc(N(C(=O)OCc2ccc(F)cc2)c2ccnc(Nc3cnn(CC(=O)NC)c3)n2)c1` [Compound I-31, 4-fluorobenzyl (3-acrylamidophenyl)(2-((1-(2-(methylamino)-2-oxoethyl)-1H-pyrazol-4-yl)amino)pyrimidin-4-yl)carbamate], the EC50 in assay [1] was below 100 nM; in assay [2], 100 to 500 nM; in assay [4], below 100 nM; in assay [5] it was below 100 nM; in assay [6] it was 100 to 500 nM.
As to `C=CC(=O)Nc1cccc(N(C(=O)OCc2cccc(F)c2)c2ccnc(Nc3cnn(C)c3)n2)c1` [Compound I-3, 3-fluorobenzyl (3-acrylamidophenyl)(2-((1-methyl-1H-pyrazol-4-yl)amino)pyrimidin-4-yl)carbamate], the EC50 in assay [1], in assay [2], in assay [4], in assay [5] and in assay [6] was below 100 nM throughout.
For `C=CC(=O)Nc1cccc(N(C(=O)O[C@@H](C)c2ccc(F)cc2)c2ccnc(Nc3cnn(C)c3)n2)c1` [Compound I-17, (S)-1-(4-fluorophenyl)ethyl (3-acrylamidophenyl)(2-((1-methyl-1H-pyrazol-4-yl)amino)pyrimidin-4-yl)carbamate], the EC50 in assay [1] was below 100 nM; in assay [2], below 100 nM; in assay [3], 100 to 500 nM; in assay [4], below 100 nM; in assay [5], below 100 nM; in assay [6] it was below 100 nM.

What is called EC50 is the concentration at which the effect is half-maximal.
